# What was measured:
# [1] = system: mouse model of psoriasis; test: Mouse model of psoriasis (Aldar cream, 5% imiquimod): ear thickness and clinical signs; format: in vivo, female Balb/c mice; conditions: Compound 1 30 mg/kg, Neotigason 5 mg/kg, M ± m, n = 20; for The gain of the ear thickness at the determined day of study to day 0, Day 2 / The gain of the ear thickness at the determined day of study to day 0, Day 3 / The gain of the ear thickness at the determined day of study to day 0, Day 4 / The gain of the ear thickness at the determined day of study to day 0, Day 5 / The gain of the ear thickness at the determined day of study to day 0, Day 6: intragastric once daily; for Clinical signs of psoriasis, Erythema, Day 4 / Clinical signs of psoriasis, Flakes, Day 4 / Clinical signs of psoriasis, Thickening, Day 4 / Clinical signs of psoriasis, Erythema, Day 6 / Clinical signs of psoriasis, Flakes, Day 6 / Clinical signs of psoriasis, Thickening, Day 6: score 0-4 (Table 1)
# Method: (§1) The induction of psoriasis in mice was carried out according to the standard procedure [European Journal of Pharmacology. 2015. V. 756. P. 43-51]. Aldar cream (5% imiquimod) was applied to female Balb/c mice on the inner side of the right ear once daily by 30 mg/mouse for 7 days (0-6th day). Vaseline was applied to the intact animals. […] Euthanasia was carried out 24 hours later (7th day) after the last application of the Aldar cream. Daily on the 0, 2nd, 3rd, 4th, 5th, 6th day, the thickness of the right ear was measured in the morning before the next application of the Aldar cream and before the euthanasia. After the euthanasia, blood was collected from the heart cavities, serum was isolated. The content of MCP1 was determined in blood serum by an enzyme-linked immunosorbent assay method, using test systems Mouse CCL2 (MCP-1) Uncoated ELISA Kit (Invitrogen).
# 2011. V. 88(1-2). P. 100-113].
# [2] = system: non-infectious pneumonia induced by poly I:C; test: Non-infectious pneumonia induced by intranasal administration of poly I:C to mice (BAL neutrophils, lung histology); format: in vivo, female Balb/c mice
# Method: The induction of pneumonia in mice was carried out according to the standard procedure [Eur Respir J. 2013 V. 41(5). […] Female Balb/c mice were intranasally administered with 8 μg/kg of polyinosine-polycytidylic acid (poly I:C) in 30 μl of PBS on days 1, 2, 3 and 4. Then at days 15, 16, 17 and 18, in the same volume 2 μg/kg of poly I:C were administered to the animals. […] All mice were sacrificed on the 19th day of the study. The bronchus from the right lung was pinched by the ligature, the left lung was washed 3 times with 0.8 ml of the sterile PBS. After each administration of PBS into the lung, the gentle massage of the lung was carried out, PBS was drained by gravity. Finally, the final volume of the resulting bronchoalveolar lavage (BAL) was considered and written. A number of neutrophils was evaluated in the BAL (using the Diff-Quik staining). For histological study, the right lung lobe was fixed in 10% neutral formalin solution and embedded in paraffin by the standard procedure. Deparaffinated 5-micron shears were stained with hematoxylin-eosin. Each lesion was evaluated according to a 5-point scale: 1 point—the inflammatory infiltrate occupies 0-20% of the area of the histological preparation under study, 2 point—the inflammatory infiltrate occupies 21-40% of the area of the histological preparation under study, 3 points—the inflammatory infiltrate occupies 41-60% of the area of the histological preparation under study, 4 points—the inflammatory infiltrate occupies 61-80% of the area of the histological preparation under study, 5 points—the inflammatory infiltrate occupies 81-100% of the area of the histological preparation under study. Alveolar destruction index (DI) as the percentage of the damaged alveoli relative to the total number of alveoli was also calculated.
# [3] = system: macrophage chemotaxis (thioglycolate peritonitis); test: Macrophage chemotaxis to the site of inflammation (thioglycolate peritonitis) in mice; format: in vivo, male Balb/c mice
# Method: The induction of macrophage chemotaxis to the site of inflammation (thioglycolate peritonitis) in mice were performed according to the standard procedure [J Leukoc Biol. 2009. V. 86.(2). P. 361-370]. Male Balb/c mice were intraperitoneally administered with 2 ml of 3% thioglycolic medium stored for 1 month. The preparation of thioglycolic medium was carried out as follows: 15 g of dry thioglycolic medium was stirred in 500 ml of distilled water, was boiled at 100° C. for 2 minutes, was filtered through a paper filter, was poured out by 50 ml in sterile tubes and was sterilized by autoclaving at 121° C. for 15 minutes. […]
# After 72 hours, the animals were euthanized in a CO2-chamber and the peritoneum area was wetted with 70% alcohol, the skin on the abdominal cavity was carefully cut off, and 5 ml of a cold phosphate-saline buffer containing 0.1% of ethylenediamine tetraacetic acid was injected intraperitoneally with a syringe. After gentle massage of the abdominal cavity, the exudate was collected by a syringe into tubes, and the volume of the collected exudate was determined.
# Smears were prepared from the cell pellet, which smears were further fixed in methanol (5 minutes) and stained by Romanowsky-Giemsa (40 min at 20-22° C.). On the smears, under the microscope Olympus bx51 (at magnification 100) the quantity of monocytes/macrophages was counted by the routine method. […]
# [4] = system: MCP-1 (CCL2); test: MCP-1 level in blood serum of mice on the psoriasis model (ELISA); format: in vivo, female Balb/c mice; conditions: day 7, 30 mg/kg intragastric, M ± m, n = 10
# Method: as §1
# [5] = system: non-infectious pneumonia induced by cigarette smoke extract; test: Non-infectious pneumonia induced by cigarette smoke extract, lung histology; format: in vivo, male Balb/c mice; conditions: 30 mg/kg intragastric daily day 7-27, 5-point scale; M ± m, n = 12
# Method: The induction of non-infectious pneumonia in mice was carried out according to the standard procedure [Zhang Yl, Cao J, Chen Y, Chen P, Peng H, Cai S, Luo H, Wu SJ. […] Male Balb/c mice were intraperitoneally administered with cigarette smoke extract (CSE, 0.45 ml/20 mg) at 0, 11th, 15th, 17th, 19th and 22nd day. The CSE was prepared as follows: 5 cigarettes were burnt, using a vacuum pump, the smoke was filtered to remove particles and collected in a vessel containing a phosphate saline buffer. […] Euthanasia was carried out on the 28th day. The right lung lobe was fixed in 10% neutral formalin solution, passed through the alcohols of ascending concentrations to xylene, and embedded in paraffin by standard procedures. Deparaffinated 5-micron shears were stained with hematoxylin-eosin and the histological analysis was carried out.
# Each lesion was evaluated according to a 5-point scale: 1 point—the inflammatory infiltrate occupies 0-20% of the area of the histological preparation under study, 2 point—the inflammatory infiltrate occupies 21-40% of the area of the histological preparation under study, 3 points—the inflammatory infiltrate occupies 41-60% of the area of the histological preparation under study, 4 points—the inflammatory infiltrate occupies 61-80% of the area of the histological preparation under study, 5 points—the inflammatory infiltrate occupies 81-100% of the area of the histological preparation under study. Alveolar destruction index (DI) as the percentage of the damaged alveoli relative to the total number of alveoli was also calculated.
# [6] = system: neutrophil and macrophage chemotaxis (carrageenan pouch); test: Macrophage and neutrophil chemotaxis model to the site of inflammation (carrageenan pouch) in mice; format: in vivo, female Balb/c mice
# Method: The induction of macrophages and neutrophils chemotaxis to the site of inflammation (carrageenan pouch) in mice was tested according to the standard procedure [Curr Protoc Pharmacol. 2012. V. 5. P. 5-6]. […] After 3 days to maintain the integrity of the air pouch without increasing the wound, 2.5 ml of air was introduced at the same site. On day 6 under CO2 anesthesia to induce inflammation, 1 ml of 1% carrageenan solution prepared in physiological saline was administered directly into the pouch. The test compound was administered intragastrically 1 hour before the administration of carrageenan and then every 10-12 hours in the volume of 0.1 ml. The last administration is 12 hours before the slaughter. Euthanasia by the inhalation of CO2 was performed 48 hours after the carrageenan injection. Immediately after the euthanasia, 1 ml of physiological saline containing 5.4 mM of EDTA of room temperature was introduced into the pouch with a sterile syringe. After gentle massage of the region of the air pouch, a sagittal incision was made across the pouch and exudate was collected by a dispenser. After the centrifugation of the exudate from the cell pellet, smears were prepared, which were then fixed in methanol and were stained by Romanowsky-Giemsa. A quantity of macrophages and neutrophils was then determined on the smears under a microscope. The cell calculation was made up to 100 pcs.
# [7] = system: acetic acid-induced abdominal constrictions; test: Specific pain reaction by chemical stimulation of peritoneum (abdominal constriction test); format: in vivo, Balb/c mice; conditions: 30 mg/kg intragastric, M ± m, n = 12
# Method: The model of the specific pain reaction by the method of chemical stimulation of peritoneum (“abdominal constriction” test) was carried out according to the standard procedure. To conduct the “abdominal constriction” test, Balb/c mice were intraperitoneally administered with 1% acetic acid in a volume of 10 ml per kg of the animal body weight. The test compound was administered intragastrically, once, 1 or 2 hour(s) before the administration of acetic acid. A quantity of constrictions (convulsive twitching of the abdominal muscles accompanied with stretching hind quarters and arching) was evaluated 15 minutes after the administration of acetic acid.
# [8] = system: thermal pain irritation (hot plate); test: Thermal pain irritation model hot plate; format: in vivo, Balb/c mice
# Method: The model of thermal pain irritation “hot plate” was carried out according to the standard procedure [Valdman A. V., Ignatov Y. D. Central mechanisms of pain. L.: Nauka, 1976]. The test compound was administered to Balb/c mice intragastrically, once. After 1, 4, 6, 12, 24 hours after the administration of the preparation, the “hot plate” test was carried out. To conduct the “hot plate” test, the mice were placed on the hot plate, the temperature (+55±1° C.) of which is constant. The time of first manifestations of the pain response in mice (paw licking, jumping) was registered and the mean latent time of the threshold of pain sensitivity (TPS, sec) in each group was calculated.
# [9] = 30 mg/kg intragastric daily day 6-19, 5-point scale, M ± m, n = 7
# [10] = 30 mg/kg intragastric, 48 hours after carrageenan, M ± m, n = 10
Structure (SMILES),"The gain of the ear thickness at the determined day of study to day 0, Day 2 [1]","The gain of the ear thickness at the determined day of study to day 0, Day 3 [1]","The gain of the ear thickness at the determined day of study to day 0, Day 4 [1]","Clinical signs of psoriasis, Erythema, Day 4 [1]","Clinical signs of psoriasis, Flakes, Day 4 [1]","Clinical signs of psoriasis, Thickening, Day 4 [1]","The gain of the ear thickness at the determined day of study to day 0, Day 5 [1]","The gain of the ear thickness at the determined day of study to day 0, Day 6 [1]","Clinical signs of psoriasis, Erythema, Day 6 [1]","Clinical signs of psoriasis, Flakes, Day 6 [1]","Clinical signs of psoriasis, Thickening, Day 6 [1]",also measured
"O=C1CCCC(=O)N1CCc1cnc[nH]1 [Compound 1, 1-(2-(1H-imidazol-4-yl)ethyl)piperidine-2,6-dione]",7.8 ± 1.4& %,11.2 ± 1.9& %,33.8 ± 1.6& %,1.5 ± 0.1*& points,0.0 ± 0.0& points,0.9 ± 0.1*& points,46.9 ± 1.6*& %,55.8 ± 0.8*& %,1.3 ± 0.1*& points,0.1 ± 0.1& points,1.3 ± 0.1*& points,"Interstitial pneumonia [2, 9]: 0.76 ± 0.1& points; Peribronchitis [2, 9]: 0.73 ± 0.32& points; Perivasculitis [2, 9]: 0.80 ± 0.31& points; Neutrophils in 1 μl Score (bronchoalveolar lavage) ([2]; 30 mg/kg intragastric daily day 6-19, M ± m, n = 7): 0.0 ± 0.0& in 1 μl; Influx of neutrophils into the bronchoalveolar space ([2]; intragastric administration): completely abolished; Macrophages in peritoneal exudate ([3]; 30 mg/kg intragastric, 72 hours after thioglycolate): 0.84 ± 0.16 & ×10^9/l; Quantity of macrophages in the peritoneal exudate ([3]; intragastric administration): to the level of intact animals; MCP-1 level in blood serum [4]: 113.7 ± 8.3 & pg/ml; Interstitial pneumonia [5]: 1.08 ± 0.16& points; Peribronchitis [5]: 0.13 ± 0.07& points; Perivasculitis [5]: 1.03 ± 0.11& points; Macrophages in the exudate from the carrageenan pouch [6, 10]: 0.6 ± 0.2 & ×10^9/l; Neutrophils in the exudate from the carrageenan pouch [6, 10]: 0.6 ± 0.1 & ×10^9/l; Quantity of neutrophils and macrophages in the pouch cavity ([6]; intragastric administration): to the level of intact animals; Quantity of constrictions for 15 minutes ([7]; 1 hour before the administration of acetic acid): 23.8 ± 3.7; Quantity of constrictions for 15 minutes ([7]; 2 hour before the administration of acetic acid): 22.7 ± 2.6; Increase of the threshold of pain sensitivity in the hot plate test ([8]; intragastric administration): 2 times"
O=C(c1ccccc1)c1ccc2n1CCC2C(=O)O (centres unmarked) [Ketorol],,,,,,,,,,,,"TPS, % to the values before the administration of the preparation, after 1 hours ([8]; 1 hour after single intragastric dose, Compound 1 30 mg/kg, Ketorol 15 mg/kg, M ± m, n = 12): 146.4 ± 16.6%; TPS, % to the values before the administration of the preparation, after 4 hours ([8]; 4 hours after single intragastric dose, Compound 1 30 mg/kg, Ketorol 15 mg/kg, M ± m, n = 12): 195.9 ± 30.0 %; TPS, % to the values before the administration of the preparation, after 6 hours ([8]; 6 hours after single intragastric dose, Compound 1 30 mg/kg, Ketorol 15 mg/kg, M ± m, n = 12): 176.6 ± 34.0%; TPS, % to the values before the administration of the preparation, after 12 hours ([8]; 12 hours after single intragastric dose, Compound 1 30 mg/kg, Ketorol 15 mg/kg, M ± m, n = 12): 166.5 ± 25.3%; TPS, % to the values before the administration of the preparation, after 24 hours ([8]; 24 hours after single intragastric dose, Compound 1 30 mg/kg, Ketorol 15 mg/kg, M ± m, n = 12): 159.7 ± 22.4%"
"COc1cc(C)c(/C=C/C(C)=C/C=C/C(C)=C/C(=O)O)c(C)c1C [Neotigason, reference compound]",14.2 ± 1.9*& %,27.5 ± 1.8*& %,45.9 ± 2.5*& %,1.2 ± 0.1*& points,0.0 ± 0.0& points,1.4 ± 0.1*& points,68.9 ± 1.8 %,83.1 ± 1.4 %,1.6 ± 0.1*& points,0 ± 0& points,1.3 ± 0.1*& points,

# Reference: patent publication US11439631B2, “Use of a glutarimide derivative to treat diseases related to the aberrant activity of cytokines” (“CHEMIMMUNE THERAPEUTICS” LIMITED LIABILITY COMPANY, priority 2017, dated 2022)
